Reference: US7767645B2, “SH2 domain binding inhibitors” (The United States of America as represented by the …, priority 2003, dated 2010)

Experiments:
[1] = molecular target: T1, Grb2 SH2 domain protein (b-Grb2) (Homo sapiens, UniProt P62993); experiment: Surface Plasmon Resonance (SPR) determination of Grb2 SH2 domain-binding Kd values; conditions: BIACORE S51, immobilized biotinylated Grb2 SH2 domain, 25° C., PBS pH 7.4
T1 construct: All Biotinylated Grb2 SH2 domain protein (b-Grb2) was expressed and purified; biotin (biotinylated)
T1 sequence (P62993 60-152 limits assumed): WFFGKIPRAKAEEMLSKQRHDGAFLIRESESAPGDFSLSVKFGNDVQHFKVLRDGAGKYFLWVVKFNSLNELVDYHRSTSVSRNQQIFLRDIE
Procedure: Binding affinities were determined as follows. Surface Plasmon Resonance (SPR) Determination of Grb2 SH2 Domain-Binding Kd Values. Binding experiments were performed on a BIACORE S51 instrument (Biacore Inc., Piscataway N.J.). All Biotinylated Grb2 SH2 domain protein (b-Grb2) was expressed and purified (Protein Expression Laboratory and The Protein Chemistry Laboratory, SAIC—Frederick). The b-Grb2 was immobilized onto carboxymethyl 5′ dextran surface (CM5 sensor chip, Biacore Inc.) by amine coupling. The lyophilized b-Grb2 was reconstituted in fifty percent DMSO in H2O to make a stock solution of 1 mg/mL and stored at −80° C. A 1:12.5 dilution of b-Grb2 was used for immobilization and prepared by dilution in acetate buffer pH-5.0, with 5% DMSO. 1×PBS (phosphate buffered saline, pH 7.4) was used as the running buffer.
An immobilization wizard was used to facilitate immobilization targeting. For b-Grb2, 2500-5000 resonance units (RU) of protein were captured on the CM5 sensor chip. Small molecule ligands were serially diluted in running buffer to concentrations of 1.25 nM-1500 nM, as described in each sensorgram and injected at 25° C. at a flow rate of 30 μl/min for 1 minute and dissociation was monitored for an additional 3 minutes. Surface regeneration was not used. Samples of differing concentrations of small molecule ligands were injected in increasing concentration, with every injection being performed in duplicate within each experiment. In order to subtract background noise from each data set, all samples were also run over an unmodified reference surface and injections of running buffer were performed throughout every experiment (“double referencing”). Up to six data sets were fit to a simple 1:1 interaction model or to a surface heterogeneity model (“complex model”) for compound 41, using the global data analysis program CLAMP. Myszka, D. G.; Morton, T. A.; CLAMP: A biosensor kinetic data analysis program. Trends Biochem. Sci. 1998, 23, 149-150. The mean of the ratio and associated error were calculated according to known procedures. van Kempen, G. M.; van Vliet, L. J.; Mean and variance of ratio estimators used in fluorescence ratio imaging. Cytometry 2000, 39, 300-305.

[2] = molecular target: T2, Grb2 SH2 domain-MBP fusion protein (Homo sapiens, UniProt P62993); experiment: ELISA-based determination of Grb2 SH2 domain-binding IC50 values; conditions: competition with HRP-SA-biotinylated-phosphopeptide complex
T2 construct: is added biotinylated Grb2 SH2 domain-MBP fusion protein; biotin (biotinylated)
T2 sequence (P62993 60-152 limits assumed): as above
Procedure: ELISA-Based Determination of Grb2 SH2 Domain-Binding IC50 Values. To multiwell plates pre-coated with streptavidin (SA) is added biotinylated Grb2 SH2 domain-MBP fusion protein. SH2 domain-fusion protein binds to the SA on the plate and unbound protein is then washed away and the plate is blocked using the commercial ELISA blocking agent, I-Block that contains detergent and casein (a milk protein). This blocking agent prevents subsequently-added constituents from sticking to the plastic well non-specifically. To the wells is then added horseradish peroxidase-(HRP)-SA-biotinylated-phosphopeptide as a pre-formed complex (termed “Complex”). [NOTE: The HRP-SA-biotinylated phosphopeptide complex is prepared ahead of time by combining a vast molar excess of SA-HRP with the biotinylated phosphopeptide to assure that all of the biotin sites are bound to SA-HRP before they are added to the well. This prevents those biotin sites from sticking to the SA coating on the plate, which would generate a signal even in the absence of biotinylated Grb2 SH2 domain-MBP fusion protein.] This complex binds to the Grb2 SH2 domain via the phosphopeptide. Unbound Complex is washed away before adding HRP substrate (OPD) to generate a color that is measured spectrophotometrically. Synthetic SH2 domain binding antagonists, at various concentrations, are added to wells in the presence of Complex to compete for HRP-SA-biotinylated-phosphopeptide binding to Grb2 SH2 domain protein. The intensity of the resulting color for each well as a function of the concentration of synthetic inhibitor added is recorded.

Structure (SMILES) | Kd [1] [nM] | IC50 [2] [nM]
Cc1ccc2c(ccn2CC2CC=CC(c3ccc(NC(=O)C(=O)O)cc3)C(CC(=O)O)C(=O)NC3(CCCCC3)C(=O)NC(CC(N)=O)C(=O)NC2)c1 (centres unmarked) [Compound 28] | 67 | 8.8
Cc1ccc2c(ccn2CC2CC=CC(c3ccc(CC(=O)O)cc3)C(CC(=O)O)C(=O)NC3(CCCCC3)C(=O)NC(CC(N)=O)C(=O)NC2)c1 (centres unmarked) [Compound 33] | – | 22.5
Cc1ccc2c(ccn2CC2CC=CC(c3ccc(CP(=O)(O)Cc4ccccc4)cc3)C(CC(=O)O)C(=O)NC3(CCCCC3)C(=O)NC(CC(N)=O)C(=O)NC2)c1 (centres unmarked) [Compound 41] | 35.3 | 8.4

More lines, in order of falling Kd [1], values ahead:

Kd [1] [nM] | IC50 [2] [nM] | Structure (SMILES)
3.62 | 3.3 | Cc1ccc2c(ccn2CC2CC=CC(c3ccc(C(C(=O)O)C(=O)O)cc3)C(CC(=O)O)C(=O)NC3(CCCCC3)C(=O)NC(CC(N)=O)C(=O)NC2)c1 (centres unmarked) [Compound 32]
1.67 | – | Cc1ccc2c(ccn2CC2CC=CC(c3ccc(CP(=O)(O)O)cc3)C(CC(=O)O)C(=O)NC3(CCCCC3)C(=O)NC(CC(N)=O)C(=O)NC2)c1 (centres unmarked) [Compound 6]
